Values of other authors, collected in patent publication US20160000716A1, “METHOD OF TREATING VITAMIN B12 DEFICIENCY” (Pharmaceutical Productions Inc., priority 2013, published 2016).

Settings: over a wide dosing range, independent of the presence of intrinsic factor

Vitamin B-12
Fraction of oral Vitamin B-12 absorbed: approximately 1.2%
